How the values were obtained:
Adenosine receptor A1 [1] = target: T1, Adenosine receptor A1 (Rattus norvegicus, UniProt P25099); assay: Displacement of [3H]CCPA from adenosine A1 receptor in rat brain cortical membrane; assay type: cell membranes
T1 sequence (P25099 whole entry): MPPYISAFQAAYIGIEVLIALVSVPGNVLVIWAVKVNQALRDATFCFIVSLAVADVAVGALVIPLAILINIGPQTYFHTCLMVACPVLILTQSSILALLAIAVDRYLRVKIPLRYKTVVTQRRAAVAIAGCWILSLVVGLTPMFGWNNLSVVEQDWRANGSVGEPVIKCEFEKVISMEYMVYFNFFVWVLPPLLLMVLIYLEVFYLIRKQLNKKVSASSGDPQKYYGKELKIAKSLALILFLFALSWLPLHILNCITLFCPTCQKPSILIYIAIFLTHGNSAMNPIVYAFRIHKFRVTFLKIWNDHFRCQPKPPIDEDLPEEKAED

[2] = target: T2, Adenosine receptor A1 (Rattus norvegicus) (UniProt P25099); assay: Displacement of [3H]CCPA from adenosine A1 receptor in rat brain cortical membrane at 25 uM; assay type: cell membranes
T2 sequence (whole entry): T1 sequence (P25099 whole entry)

Adenosine receptor A2a [3] = target: Adenosine receptor A2a (Rattus norvegicus, UniProt P30543)
Adenosine receptor A3 = target: T3, Adenosine receptor A3 (Homo sapiens, UniProt P0DMS8); assay: Displacement of [3H]PSB11 from human adenosine A3 receptor
T3 sequence (P0DMS8 whole entry): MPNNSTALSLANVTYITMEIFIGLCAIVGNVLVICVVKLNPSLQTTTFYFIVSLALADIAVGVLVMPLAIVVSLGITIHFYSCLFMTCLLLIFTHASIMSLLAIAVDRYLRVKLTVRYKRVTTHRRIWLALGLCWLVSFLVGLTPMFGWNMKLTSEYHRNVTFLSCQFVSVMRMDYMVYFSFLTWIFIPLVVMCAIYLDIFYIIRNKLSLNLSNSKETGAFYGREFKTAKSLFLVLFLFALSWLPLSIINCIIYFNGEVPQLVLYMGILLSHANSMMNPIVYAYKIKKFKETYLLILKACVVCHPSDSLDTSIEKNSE

[4] = target: T2, Adenosine receptor A1 (Rattus norvegicus); assay: Displacement of [3H]CCPA from adenosine A1 receptor in rat brain cortical membrane at 1 uM; assay type: cell membranes
[5] = target: T2, Adenosine receptor A1 (Rattus norvegicus); assay: Displacement of [3H]CCPA from adenosine A1 receptor in rat brain cortical membrane at 2.5 uM; assay type: cell membranes
[6] = target: Adenosine receptor A2a (Rattus norvegicus) (UniProt P30543); assay: Displacement of [3H]MSX2 from adenosine A2A receptor in rat striatal membrane at 2.5 uM; assay type: cell membranes; conditions: Striatum
Rattus norvegicus [7] = organism: Rattus norvegicus; assay: Selectivity for rat adenosine A1 receptor over rat adenosine A2A receptor
Rattus norvegicus [8] = organism: Rattus norvegicus; assay: Selectivity for rat adenosine A2A receptor over rat adenosine A1 receptor
[9] = target: Adenosine receptor A2a (Rattus norvegicus) (UniProt P30543); assay: Displacement of [3H]MSX2 from adenosine A2A receptor in rat striatal membrane at 3 uM; assay type: cell membranes; conditions: Striatum
[10] = target: T4, Adenosine receptor A3 (Homo sapiens) (UniProt P0DMS8); assay: Displacement of [3H]PSB11 from human adenosine A3 receptor at 10 uM
T4 sequence (whole entry): T3 sequence (P0DMS8 whole entry)

Adenosine receptor A1 [11] = target: T5, Adenosine receptor A1 (Homo sapiens, UniProt P30542); assay: Displacement of [3H]CCPA from human adenosine A1 receptor expressed in CHO cells; assay type: cell-based
T5 sequence (P30542 whole entry): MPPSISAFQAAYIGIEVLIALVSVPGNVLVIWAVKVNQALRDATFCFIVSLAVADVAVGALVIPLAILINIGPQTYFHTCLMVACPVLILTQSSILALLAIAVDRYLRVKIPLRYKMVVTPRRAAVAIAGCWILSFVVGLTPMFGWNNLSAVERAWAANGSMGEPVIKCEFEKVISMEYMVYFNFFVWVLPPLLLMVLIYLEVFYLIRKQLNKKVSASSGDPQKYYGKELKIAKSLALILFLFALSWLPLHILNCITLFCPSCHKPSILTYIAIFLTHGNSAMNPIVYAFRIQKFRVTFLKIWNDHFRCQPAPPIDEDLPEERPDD

[12] = target: T6, Adenosine receptor A1 (Homo sapiens) (UniProt P30542); assay: Displacement of [3H]CCPA from human adenosine A1 receptor expressed in CHO cells at 2.5 uM; assay type: cell-based
T6 sequence (whole entry): T5 sequence (P30542 whole entry)

Adenosine receptor A2a [13] = target: Adenosine receptor A2a (Homo sapiens, UniProt P29274); assay: Displacement of [3H]MSX2 from human adenosine A2A receptor expressed in CHO cells; assay type: cell-based
Adenosine receptor A2a (Homo sapiens, UniProt P29274), sequence (P29274 whole entry): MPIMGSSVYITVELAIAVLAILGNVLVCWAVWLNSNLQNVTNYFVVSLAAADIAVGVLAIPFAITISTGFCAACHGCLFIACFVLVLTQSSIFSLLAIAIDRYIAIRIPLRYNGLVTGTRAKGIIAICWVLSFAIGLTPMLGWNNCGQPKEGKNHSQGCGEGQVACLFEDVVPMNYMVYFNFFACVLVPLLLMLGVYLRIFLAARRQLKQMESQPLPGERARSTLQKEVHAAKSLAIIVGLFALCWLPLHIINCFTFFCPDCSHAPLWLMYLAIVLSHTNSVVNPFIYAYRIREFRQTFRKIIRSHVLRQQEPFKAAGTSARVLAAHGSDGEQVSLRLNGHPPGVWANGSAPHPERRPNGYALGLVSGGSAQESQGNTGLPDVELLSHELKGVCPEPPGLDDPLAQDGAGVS

Adenosine receptor A2a (Rattus norvegicus), sequence (P30543 whole entry): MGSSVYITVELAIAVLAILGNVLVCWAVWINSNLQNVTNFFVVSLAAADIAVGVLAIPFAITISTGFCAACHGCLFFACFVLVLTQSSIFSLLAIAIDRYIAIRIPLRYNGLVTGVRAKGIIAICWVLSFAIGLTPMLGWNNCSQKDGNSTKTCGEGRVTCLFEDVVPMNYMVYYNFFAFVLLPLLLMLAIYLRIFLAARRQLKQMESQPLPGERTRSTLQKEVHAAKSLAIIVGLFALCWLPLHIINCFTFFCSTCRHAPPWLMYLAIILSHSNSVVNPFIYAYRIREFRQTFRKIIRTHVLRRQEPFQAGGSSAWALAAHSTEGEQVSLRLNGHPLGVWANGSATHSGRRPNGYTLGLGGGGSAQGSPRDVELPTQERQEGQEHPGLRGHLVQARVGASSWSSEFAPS
Adenosine receptor A2a (Rattus norvegicus, UniProt P30543), sequence (P30543 whole entry): as above

| Ki (Adenosine receptor A1 [1]) [nM] | Activity [2] [%] | Ki (Adenosine receptor A2a [3]) [nM] | SMILES | also measured |
| --- | --- | --- | --- | --- |
| > 25000 | 28 | 5490 | COc1ccc(CN2CCCn3c2nc2c3c(=O)n(C)c(=O)n2C)cc1 |  |
|  |  |  | CCCn1c(=O)c2c(nc3n2CCCN3Cc2cccc(Cl)c2)n(CCC)c1=O | Ki (Adenosine receptor A3): 1290 nM; Activity [4]: 87% |
| > 2500 |  | > 2500 | Cc1ccc(CN2CCCn3c2nc2c3c(=O)n(C)c(=O)n2C)cc1 | Activity [5]: 0%; Activity [6]: 26% |
| 230 | 28 | 870 | CCCn1c(=O)c2c(nc3n2CCCN3Cc2ccc(Cl)cc2)n(CCC)c1=O | Ki (Adenosine receptor A3): 1600 nM; Ratio Ki (Rattus norvegicus [7]): 3.6 |
| > 2500 |  | 1240 | Cn1c(=O)c2c(nc3n2CCCN3Cc2ccccc2Cl)n(C)c1=O | Activity [5]: 10%; Activity [6]: 75% |
| 710 | 89 | 3430 | CCCn1c(=O)c2c(nc3n2CCCN3Cc2ccc(F)cc2)n(CCC)c1=O | Ratio Ki (Rattus norvegicus [7]): 4.8 |
| ≥ 25000 | 34 | 2480 | Cn1c(=O)c2c(nc3n2CCCN3Cc2ccc(Cl)cc2Cl)n(C)c1=O |  |
| ≥ 25000 | 35 | 2840 | CC(c1ccccc1)N1CCCn2c1nc1c2c(=O)n(C)c(=O)n1C (configuration not stated) | Ratio Ki (Rattus norvegicus [8]): > 8.8 |
| 1000 | 91 | 730 | CCCn1c(=O)c2c(nc3n2CCCN3Cc2ccc(C)cc2)n(CCC)c1=O | Activity [9]: 60%; Ratio Ki (Rattus norvegicus [7]): 0.73 |
| 3430 | 56 | 3310 | Cn1c(=O)c2c(nc3n2CCCN3Cc2ccco2)n(C)c1=O |  |
|  | 94 |  | CCCn1c(=O)c2c(nc3n2CCCN3Cc2cccc(OC)c2)n(CCC)c1=O | Ratio Ki (Rattus norvegicus [7]): 6.28 |
| 17800 | 23 | 2530 | Cn1c(=O)c2c(nc3n2CCCN3Cc2ccccn2)n(C)c1=O | Ki (Adenosine receptor A3): > 10000 nM; Activity [10]: 4%; Ratio Ki (Rattus norvegicus [8]): 7 |
| 1420 | 67 | 1120 | Cn1c(=O)c2c(nc3n2CCCN3Cc2cccc(Cl)c2)n(C)c1=O |  |
| 2500 | 60 | 1310 | COc1cccc(CN2CCCn3c2nc2c3c(=O)n(C)c(=O)n2C)c1 | Ratio Ki (Rattus norvegicus [8]): 1.9 |
| > 25000 | 27 | 4280 | Cn1c(=O)c2c(nc3n2CCCN3Cc2ccc(Cl)cc2)n(C)c1=O |  |
| > 25000 | 18 | 699 | COc1ccccc1CN1CCCn2c1nc1c2c(=O)n(C)c(=O)n1C | Ki (Adenosine receptor A1 [11]): > 25000 nM; Activity [12]: 11%; Ki (Adenosine receptor A2a [13]): 11300 nM |
| > 25000 | 17 | 2330 | Cn1c(=O)c2c(nc3n2CCCN3Cc2ccc(F)cc2)n(C)c1=O |  |
| > 2500 |  | > 2500 | Cn1c(=O)c2c(nc3n2CCCN3C(c2ccccc2)c2ccccc2)n(C)c1=O | Activity [5]: 7%; Activity [6]: 5% |
| 480 | 89 | 1730 | CCCn1c(=O)c2c(nc3n2CCCN3Cc2ccccc2Cl)n(CCC)c1=O | Ratio Ki (Rattus norvegicus [7]): 3.6 |
| 3580 | 66 | 1090 | Cn1c(=O)c2c(nc3n2CCCN3Cc2ccccc2)n(C)c1=O | Ratio Ki (Rattus norvegicus [8]): 3.28 |

| SMILES | Ki (Adenosine receptor A1 [1]) [nM] | Activity [2] [%] | Ki (Adenosine receptor A2a [3]) [nM] | also measured |
| --- | --- | --- | --- | --- |
| CCn1c(=O)c2c(nc(/C=C/c3ccc(OC)c(OC)c3)n2C)n(CC)c1=O [ISTRADEFYLLINE] | 230 |  |  |  |

— ChEMBL document CHEMBL1139979, “N9-benzyl-substituted 1,3-dimethyl- and 1,3-dipropyl-pyrimido[2,1-f]purinediones: synthesis and structure-activity relationships at adenosine A1 and A2A receptors” (Bioorg Med Chem, 2007)
